US12492193B2, “Pyrazole derivatives for the treatment of cystic fibrosis” (Fondazione Istituto Italiano Di Tecnologia, priority 2017, dated 2025)

Biological target: T1, mutant CFTR (Homo sapiens, UniProt P13569, DEL508-508)
T1 construct: expressed in transfected cells
Test: Fluorescence (HS-YFP) assay for CFTR activity, corrector assay
Type: cell-based
Details: CFBE41o- and FRT cells with stable expression of mutant CFTR, 24 h compound treatment
Outline: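 CFBE41o- or FRT cells stably expressing mutant CFTR and HS-YFP were exposed to compounds for 24 h (corrector mode), then stimulated 30 min at 37° C with forskolin (20 μM) plus genistein (50 μM). YFP quenching after 100 mM iodide injection; initial slope from exponential fit of final 10 s; EC50 reported.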

T1 sequence (P13569 with tags, fused parts or gaps DEL508-508): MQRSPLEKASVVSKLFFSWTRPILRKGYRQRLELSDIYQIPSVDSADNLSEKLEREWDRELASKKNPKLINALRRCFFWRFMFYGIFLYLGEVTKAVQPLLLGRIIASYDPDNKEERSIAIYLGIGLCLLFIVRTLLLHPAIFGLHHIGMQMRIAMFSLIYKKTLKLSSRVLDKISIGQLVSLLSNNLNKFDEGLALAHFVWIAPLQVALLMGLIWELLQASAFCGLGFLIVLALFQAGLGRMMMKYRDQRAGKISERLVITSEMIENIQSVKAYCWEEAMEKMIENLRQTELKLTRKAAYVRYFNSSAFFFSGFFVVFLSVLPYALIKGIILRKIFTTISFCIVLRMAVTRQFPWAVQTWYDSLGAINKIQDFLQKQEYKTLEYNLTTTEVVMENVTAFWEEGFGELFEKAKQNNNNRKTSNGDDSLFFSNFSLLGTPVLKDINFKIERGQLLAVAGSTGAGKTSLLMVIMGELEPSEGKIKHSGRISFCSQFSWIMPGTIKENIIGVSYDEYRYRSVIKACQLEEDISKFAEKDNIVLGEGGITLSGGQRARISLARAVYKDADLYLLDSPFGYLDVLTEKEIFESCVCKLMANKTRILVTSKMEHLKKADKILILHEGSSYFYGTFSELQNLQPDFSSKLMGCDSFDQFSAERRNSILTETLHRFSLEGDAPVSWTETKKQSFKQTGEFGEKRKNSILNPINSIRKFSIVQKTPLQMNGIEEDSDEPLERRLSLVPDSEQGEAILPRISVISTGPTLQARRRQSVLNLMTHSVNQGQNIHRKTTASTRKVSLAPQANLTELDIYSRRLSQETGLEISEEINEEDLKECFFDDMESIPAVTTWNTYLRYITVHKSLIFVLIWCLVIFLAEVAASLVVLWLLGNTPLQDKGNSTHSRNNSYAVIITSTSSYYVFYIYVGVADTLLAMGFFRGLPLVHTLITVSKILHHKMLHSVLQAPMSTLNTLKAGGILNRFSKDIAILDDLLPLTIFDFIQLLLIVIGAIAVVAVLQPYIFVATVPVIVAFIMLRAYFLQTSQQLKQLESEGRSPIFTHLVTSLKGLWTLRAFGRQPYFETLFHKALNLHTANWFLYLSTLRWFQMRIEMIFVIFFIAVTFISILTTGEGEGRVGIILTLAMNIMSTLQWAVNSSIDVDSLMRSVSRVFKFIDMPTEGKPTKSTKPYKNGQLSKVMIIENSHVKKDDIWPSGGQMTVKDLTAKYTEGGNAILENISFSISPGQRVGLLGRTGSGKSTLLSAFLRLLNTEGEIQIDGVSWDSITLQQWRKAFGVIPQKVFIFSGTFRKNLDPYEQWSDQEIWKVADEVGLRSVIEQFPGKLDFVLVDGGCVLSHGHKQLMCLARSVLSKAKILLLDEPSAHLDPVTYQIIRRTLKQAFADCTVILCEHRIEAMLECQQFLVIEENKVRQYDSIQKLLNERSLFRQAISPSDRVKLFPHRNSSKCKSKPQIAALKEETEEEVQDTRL

For CN(C(=O)c1cccc(-n2nc(C(F)(F)F)cc2O[C@H]2CC[C@@H](C(=O)O)CC2)c1)c1ccc2c(c1)OCO2 [compound 216, Cis-4-[2-[3-[1,3-benzodioxol-5-yl(methyl)carbamoyl]phenyl]-5-(trifluoromethyl)pyrazol-3-yl]oxycyclohexane carboxylic acid], the EC50 was < 1000 nM.

With Cc1nn(-c2cccc(C(=O)N(C)c3ccc4c(c3)OCO4)c2)c(COc2ccccc2)c1Cl [compound 118, N-(1,3-Benzodioxol-5-yl)-3-[4-chloro-3-methyl-5-(phenoxymethyl)pyrazol-1-yl]-N-methyl-benzamide] the EC50 was < 1000 nM.

For Cc1nn(-c2cccc(C(=O)N(C)c3cccc4c3OC(F)(F)O4)c2)c(C)c1Cl [compound 026, 3-(4-Chloro-3,5-dimethyl-pyrazol-1-yl)-N-(2,2-difluoro-1,3-benzodioxol-4-yl)-N-methyl-benzamide], the EC50 was > 2000 nM.

For Cc1c(C#N)c(C(F)(F)F)nn1-c1cccc(C(=O)N(C)c2ccc3c(c2)OCO3)c1 [compound 187, N-(1,3-Benzodioxol-5-yl)-3-[4-cyano-5-methyl-3-(trifluoromethyl)pyrazol-1-yl]-N-methyl-benzamide], the EC50 was < 1000 nM.

With CN(C(=O)c1cccc(-n2nc(C(F)(F)F)c(Cl)c2-c2ccccc2)c1)c1ccc2c(c1)OCO2 [compound 124, N-(1,3-Benzodioxol-5-yl)-3-[4-chloro-5-phenyl-3-(trifluoromethyl)pyrazol-1-yl]-N-methyl-benzamide] the EC50 was < 1000 nM.

For Cc1c(Cl)c(C(=O)O)nn1-c1cccc(C(=O)N(C)c2ccc3c(c2)OCO3)c1 [compound 069, 1-[3-[1,3-Benzodioxol-5-yl(methyl)carbamoyl]phenyl]-4-chloro-5-methyl-pyrazole-3-carboxylic acid], the EC50 was > 2000 nM.

Cc1nn(-c2cccc(C(=O)Nc3ccc4oc(C(F)(F)F)nc4c3)c2)c(C)c1Cl [compound 054, 3-(4-Chloro-3,5-dimethyl-pyrazol-1-yl)-N-[2-(trifluoromethyl)-1,3-benzoxazol-5-yl]benzamide] gave an EC50 of 1000 to 2000 nM.

In the case of Cc1c(Cl)c(C(F)(F)F)nn1-c1cccc(C(=O)N(C)c2cc3c(cc2C=O)OCO3)c1 [compound 161, 3-[4-chloro-5-methyl-3-(trifluoromethyl)pyrazol-1-yl]-N-(6-formyl-1,3-benzodioxol-5-yl)-N-methyl-benzamide], the EC50 is reported as 1000 to 2000 nM.

For CN(C(=O)c1cccc(-n2nc(C(F)(F)F)cc2OCCc2ccccc2)c1)c1ccc2c(c1)OCO2 [compound 133, N-(1,3-Benzodioxol-5-yl)-N-methyl-3-[5-phenethyloxy-3-(trifluoromethyl)pyrazol-1-yl]benzamide], the EC50 was < 1000 nM.

CCN(C(=O)c1cccc(-n2nc(C(F)(F)F)c(Cl)c2C2CC2)c1)c1ccc2nc(C)oc2c1 [compound 135, 3-[4-Chloro-5-cyclopropyl-3-(trifluoromethyl)pyrazol-1-yl]-N-ethyl-N-(2-methyl-1,3-benzoxazol-6-yl)benzamide] was tested, and the EC50 was < 1000 nM.

With CCOC(=O)c1c(Cl)c(C)nn1-c1cccc(C(=O)N(C)c2ccc3c(c2)OCCO3)c1 [compound 103, Ethyl 4-chloro-2-[3-[2,3-dihydro-1,4-benzodioxin-6-yl (methyl)carbamoyl]phenyl]-5-methyl-pyrazole-3-carboxylate] the EC50 was < 1000 nM.

CN(C(=O)c1cccc(-n2nc(C(F)(F)F)c(Cl)c2C2CC2)c1)c1ccc2c(c1)OCO2 [compound 111, N-(1,3-Benzodioxol-5-yl)-3-[4-chloro-5-cyclopropyl-3-(trifluoromethyl)pyrazol-1-yl]-N-methyl-benzamide] was tested, and the EC50 was < 1000 nM.

CN(C(=O)c1cccc(-n2nc(C(F)(F)F)cc2-c2cccnc2)c1)c1ccc2c(c1)OCO2 [compound 193, N-(1,3-Benzodioxol-5-yl)-N-methyl-3-[5-(3-pyridyl)-3-(trifluoromethyl)pyrazol-1-yl]benzamide] was tested, and the EC50 was < 1000 nM.

In the case of Cc1nn(-c2cccc(C(=O)N(C)c3ccc4c(c3)OCO4)c2)c(C(N)=O)c1Cl [compound 084, 2-[3-[1,3-benzodioxol-5-yl(methyl)carbamoyl]phenyl]-4-chloro-5-methyl-pyrazole-3-carboxamide], the EC50 is reported as > 2000 nM.

Cc1nn(-c2cccc(C(=O)N(C)c3ccc4c(c3)OCO4)c2)c([C@H](O)c2ccccc2)c1Cl (racemic) [compound 109, N-(1,3-benzodioxol-5-yl)-3-[4-chloro-5-[(rac)-hydroxy(phenyl)methyl]-3-methyl-pyrazol-1-yl]-N-methyl-benzamide] was tested, and the EC50 was < 1000 nM.

In the case of Cc1nn(-c2cccc(C(=O)N(C)c3ccc4c(c3)OCO4)c2)c(C(=O)O)c1Cl [compound 083, 2-[3-[1,3-Benzodioxol-5-yl(methyl)carbamoyl]phenyl]-4-chloro-5-methyl-pyrazole-3-carboxylic acid], the EC50 is reported as > 2000 nM.

For CCc1nc2ccc(N(C)C(=O)c3cccc(-n4nc(C)c(Cl)c4C)c3)cc2o1 [compound 076, 3-(4-Chloro-3,5-dimethyl-pyrazol-1-yl)-N-(2-ethyl-1,3-benzoxazol-6-yl)-N-methyl-benzamide], the EC50 was < 1000 nM.

Cc1c(F)c(C(F)(F)F)nn1-c1cccc(C(=O)N(C)c2ccc3c(c2)OCO3)c1 [compound 126, N-(1,3-Benzodioxol-5-yl)-3-[4-fluoro-5-methyl-3-(trifluoromethyl)pyrazol-1-yl]-N-methyl-benzamide] was tested, and the EC50 was < 1000 nM.

With Cc1cc2c(cc1NC(=O)c1cccc(-n3nc(C)c(Cl)c3C)c1)OCO2 [Int-041, 3-(4-Chloro-3,5-dimethyl-pyrazol-1-yl)-N-(6-methyl-1,3-benzodioxol-5-yl)benzamide] the EC50 was > 2000 nM.

Compound Cc1nc2ccc(N(C)C(=O)c3cccc(-n4nc(C(F)(F)F)c(Cl)c4C)c3)cc2s1 [compound 149, 3-[4-Chloro-5-methyl-3-(trifluoromethyl)pyrazol-1-yl]-N-methyl-N-(2-methyl-1,3-benzothiazol-6-yl)benzamide] has an EC50 of 1000 to 2000 nM.

In the case of Cc1c(C=O)c(C(F)(F)F)nn1-c1cccc(C(=O)N(C)c2ccc3c(c2)OCO3)c1 [compound 186, N-(1,3-Benzodioxol-5-yl)-3-[4-formyl-5-methyl-3-(trifluoromethyl)pyrazol-1-yl]-N-methyl-benzamide], the EC50 is reported as < 1000 nM.

With Cc1c(Cl)c(C(F)(F)F)nn1-c1cccc(C(=O)N(C)c2ccc3c(c2)OC(F)(F)O3)c1 [compound 095, 3-[4-Chloro-5-methyl-3-(trifluoromethyl)pyrazol-1-yl]-N-(2,2-difluoro-1,3-benzodioxol-5-yl)-N-methyl-benzamide] the EC50 was < 1000 nM.

With COc1cccc(N(C)C(=O)c2cccc(-n3nc(C)c(Cl)c3C)c2)c1 [compound 068, 3-(4-Chloro-3,5-dimethyl-pyrazol-1-yl)-N-(3-methoxyphenyl)-N-methyl-benzamide] the EC50 was < 1000 nM.

COc1ccc(N(C)C(=O)c2cccc(-n3nc(C)c(Cl)c3C)c2)cn1 [compound 021, 3-(4-Chloro-3,5-dimethyl-pyrazol-1-yl)-N-(6-methoxy-3-pyridyl)-N-methyl-benzamide] was tested, and the EC50 was > 2000 nM.

Cc1nn(-c2cccc(C(=O)N(C)c3ccc4c(c3)ncn4C)c2)c(C)c1Cl [compound 024, 3-(4-Chloro-3,5-dimethyl-pyrazol-1-yl)-N-methyl-N-(1-methylbenzimidazol-5-yl)benzamide] was tested, and the EC50 was > 2000 nM.

In the case of Cc1nn(-c2cc(C(=O)N(C)c3ccc4c(c3)OCO4)ccc2C(F)(F)F)c(C)c1Cl [compound 071, N-(1,3-Benzodioxol-5-yl)-3-(4-chloro-3,5-dimethyl-pyrazol-1-yl)-N-methyl-4-(trifluoromethyl)benzamide], the EC50 is reported as > 2000 nM.
